Patent US20090130707A1, “Methods of reducing the inhibitory effect of a redox active metal ion on the enzymatic hydrolysis of cellulosic material” (priority 2007, published 2009)

Experiments:
[1] = system: Cellulolytic Enzyme Composition #1; assay: mini-scale PCS hydrolysis by Cellulolytic Enzyme Composition #1; type: biochemical, Trichoderma reesei; details: PCS hydrolysis (FIGS. 23A-23D)
Experimental: (§1) The effect of various salts (FeSO4, FeCl2, NaCl, Na2SO4, MnSO4, MnCl2) was determined in the hydrolysis of PCS by Cellulolytic Enzyme Composition #2. The PCS hydrolysis was performed in duplicate in capped 1.7 ml EPPENDORF® tubes (“mini-scale”) containing 1 ml suspensions of 43.4 g of PCS (dry weight) per liter, 10 mM salts in 50 mM sodium acetate pH 5. Cellulolytic Enzyme Composition #2 was added at 0.25 g per liter. Reactions without the addition of the salt served as controls. The capped tubes were incubated at 50° C. in an INNOVA® 4080 incubator shaker (New Brunswick Scientific Co., Inc., Edison, N.J., USA) at 150 rpm.
(§2) Aliquots of the suspensions, sampled over time, were filtered by centrifugation using a 0.45 μm MULTISCREEN® HV membrane (Millipore, Billerica, Mass., USA) at 2000 rpm for 15 minutes using a SORVALL® RT7 centrifuge (Thermo Fisher Scientific, Waltham, Mass., USA). When not used immediately, the filtered sugary aliquots were frozen at −20° C. Sugar concentrations of the samples diluted in 0.005 M H2SO4 were measured after elution from a 4.6×250 mm AMINEX® HPX-87H column (Bio-Rad, Hercules, Calif., USA) by 0.005 M H2SO4 at a flow rate of 0.4 ml/minute at 65° C. with quantitation by integration of glucose and cellobiose using refractive index detection (CHEMSTATION®, AGILENT® 1100 HPLC, Agilent Technologies, Santa Clara, Calif., USA) calibrated with standards of glucose and cellobiose. The resultant equivalents were used to calculate the percentage of cellulose conversion for each reaction.
Example 30 was repeated with both Cellulolytic Enzyme Composition #1 and Cellulolytic Enzyme Composition #2. Soluble reducing sugars were measured by HPLC as described in Example 30. Reactions without the addition of FeSO4 served as controls.
The hydrolysis was performed in a series of duplicate “mini-scale” hydrolysis reactions according to the procedure described in Example 30.

[2] = system: Cellulolytic Enzyme Composition #1; assay: mini-scale AVICEL hydrolysis by Cellulolytic Enzyme Composition #1; type: biochemical, Trichoderma reesei; details: 3 mM; 23 g AVICEL and 0.25 g enzyme per liter
Experimental: FIGS. 19A, 19B, 19C, and 19D show the effective inhibitory concentration range of Fe(II) on the hydrolysis of AVICEL® by Cellulolytic Enzyme Composition #1 (A and B) and on the hydrolysis of PASC by Cellulolytic Enzyme Composition #1 (C and D). The AVICEL® hydrolysis was conducted with […] of AVICEL® and 0.25 g of Cellulolytic Enzyme Composition #1 per liter of 50 mM sodium acetate pH 5 at 50° C. FeSO4 (mM): (∘) 0, (+) 1, (Δ) 3, (⋄) 5, (□) 10. Dixon plot linear regression line: 1/Rate=(0.035±0.003)[Fe(II)]+(0.043±0.015), r^2=0.978. Rate was estimated from the hydrolysis difference (%) at 24 and 6 hours. The PASC hydrolysis was conducted with 2 g of PASC and 50 mg of Cellulolytic Enzyme Composition #1 per liter of 50 mM sodium acetate pH 5 at 50° C. Dixon plot linear regression line: 1/Rate=(0.0042±0.0003)[Fe(II)]+(0.059±0.002), r^2=0.994. Rates were estimated from the hydrolysis difference (%) at 7 hours.
as §1
In one series of “mini-scale” hydrolysis reactions performed according to the procedure described in Example 30, the effect of 1 mM to 10 mM FeSO4 was evaluated in the hydrolysis of AVICEL® by Cellulolytic Enzyme Composition #1.

[3] = Hydrolysis of PCS stripped with chelator; type: biochemical; details: PCS (43 g per liter) stripped overnight with 10 mM chelator, then washed
Experimental: To test whether there was any significant amount of (accessible) Fe(II) in PCS, and whether stripping it with a chelator would improve PCS hydrolysis, washed PCS (43 g per liter) was “stripped” with 10 mM 2,2′-bipyridyl, 1,10-phenanthroline, or 1,7-phenanthroline. After overnight pre-incubation, the PCS was extensively washed to remove the chelator. The hydrolysis was performed in a series of duplicate “mini-scale” hydrolysis reactions performed according to the procedure described in Example 30.

[4] = target: T1, Trichoderma reesei Cel7B endoglucanase I (Trichoderma reesei, UniProt P07981); assay: PASC hydrolysis by Cel7B endoglucanase I; type: biochemical
T1 construct: made in house; host or cells: Aspergillus oryzae JaL250
T1 sequence (P07981 23-459): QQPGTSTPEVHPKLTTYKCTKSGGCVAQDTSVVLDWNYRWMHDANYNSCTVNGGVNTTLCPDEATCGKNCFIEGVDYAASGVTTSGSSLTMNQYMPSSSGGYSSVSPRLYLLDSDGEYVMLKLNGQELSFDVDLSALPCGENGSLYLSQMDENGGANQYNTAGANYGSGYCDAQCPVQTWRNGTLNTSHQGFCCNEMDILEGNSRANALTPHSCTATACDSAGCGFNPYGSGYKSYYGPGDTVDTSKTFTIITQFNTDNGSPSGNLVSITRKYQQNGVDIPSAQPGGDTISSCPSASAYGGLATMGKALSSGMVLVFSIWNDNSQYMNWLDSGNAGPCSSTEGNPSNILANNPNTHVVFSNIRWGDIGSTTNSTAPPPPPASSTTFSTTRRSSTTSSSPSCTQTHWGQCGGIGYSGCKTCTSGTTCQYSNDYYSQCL

[5] = system: Cellulolytic Enzyme Composition #2; assay: mini-scale PCS hydrolysis by Cellulolytic Enzyme Composition #2; type: biochemical, Trichoderma reesei; details: 10 mM Fe(II) (FIG. 17B)
Experimental: Corn stover was pretreated at the U.S. Department of Energy National Renewable Energy Laboratory (NREL), […], Colo., USA, using dilute sulfuric acid. The following conditions were used for the pretreatment: 1.4 wt % sulfuric acid at 195° C. for 4.5 minutes. According to limit digestion with excess cellulase enzymes, the water-insoluble solids in the pretreated corn stover (PCS) contained 59.5% cellulose. Prior to use, the PCS was washed with a large volume of deionized water until soluble acid and sugars were removed. The dry weight of the water-washed PCS was 19.16%.
The effect of various salts (FeSO4, FeCl2, NaCl, Na2SO4, MnSO4, MnCl2) was determined in the hydrolysis of PCS by Cellulolytic Enzyme Composition #2. […] Cellulolytic Enzyme Composition #2 was added at 0.25 g per liter. Reactions without the addition of the salt served as controls. The capped tubes were incubated at 50° C. in an INNOVA® 4080 incubator shaker (New Brunswick Scientific Co., Inc., Edison, N.J., USA) at 150 rpm.
as §2
The degree of cellulose conversion to glucose plus cellobiose (% conversion) was calculated using the following equation:
% Conversion=(glucose+cellobiose×1.053)(mg/ml)×100×162/cellulose(mg/ml)×180)=(glucose+cellobiose×1.053)(mg/ml)×100/(cellulose(mg/ml)×1.111)
In this equation the factor 1.111 reflects the weight gain in converting cellulose to glucose, and the factor 1.053 reflects the weight gain in converting cellobiose to glucose. Cellulose in PCS was determined by a limit digest of PCS to release glucose and cellobiose.

[6] = target: T2, Trichoderma reesei Cel5A endoglucanase II (Trichoderma reesei, UniProt P07982); assay: PASC hydrolysis by Cel5A endoglucanase II; type: biochemical
T2 construct: made in house; host or cells: Aspergillus oryzae JaL250 (transformant JaL250AlLo27)
T2 sequence (P07982 22-418): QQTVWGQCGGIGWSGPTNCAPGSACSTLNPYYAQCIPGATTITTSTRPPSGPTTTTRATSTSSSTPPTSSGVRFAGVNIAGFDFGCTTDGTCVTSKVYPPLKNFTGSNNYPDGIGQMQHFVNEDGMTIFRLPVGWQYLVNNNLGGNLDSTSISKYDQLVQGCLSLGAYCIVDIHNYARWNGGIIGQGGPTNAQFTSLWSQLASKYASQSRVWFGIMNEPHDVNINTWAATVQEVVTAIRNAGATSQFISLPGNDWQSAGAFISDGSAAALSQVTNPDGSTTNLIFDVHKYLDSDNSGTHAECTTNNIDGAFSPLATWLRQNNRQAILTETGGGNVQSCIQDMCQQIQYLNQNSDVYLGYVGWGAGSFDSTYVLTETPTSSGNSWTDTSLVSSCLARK

[7] = target: Cellulolytic Enzyme Composition #1; assay: mini-plate-scale PASC hydrolysis by Cellulolytic Enzyme Composition #1; type: biochemical, Trichoderma reesei; details: PASC; Enzymes: Cellulolytic Enzyme Composition #1; read-out: I50 (mean ± SD)
Experimental: (§3) Various (biologically common) divalent metal cations with variable ionic radii were tested in 2.8 ml Deep Well Microplates (VWR International, West Chester, Pa., USA) (“mini-plate-scale”) containing 1 ml suspensions of 25 g of AVICEL® per liter in 50 mM sodium acetate pH 5 at 50° C. Cellulolytic Enzyme Composition #1 was added at 0.25 g per liter for each hydrolysis. The mini-plates were sealed at 160° C. for 2 seconds using an ABGENE® ALPS 300™ sealer (ABgene, Rochester, N.Y., USA). The sealed mini-plates were incubated at 50° C. in an INNOVA® 4080 incubator shaker at 150 rpm. Soluble reducing sugars were measured by HPLC as described in Example 30.
In one series of “mini-scale” hydrolysis reactions performed according to the procedure described in Example 30, the effect of 1 mM to 10 mM FeSO4 was evaluated in the hydrolysis of AVICEL® by Cellulolytic Enzyme Composition #1. In a series of “mini-plate-scale” hydrolysis reactions performed according to the procedure described in Example 32, the effect of 1 mM to 10 mM FeSO4 was evaluated in the hydrolysis of PASC by Cellulolytic Enzyme Composition #1, except 2 g of PASC and 0.05 g Cellulolytic Enzyme Composition #1 per liter of 50 mM sodium acetate pH 5 were used.
The above study was extended to a range of concentration of Fe(II) and cellulose. In a series of “mini-plate-scale” hydrolysis reactions performed according to the procedure described in Example 32, except that 0.1 to 10 mM FeSO4, 0.6 to 4 g of PASC and 0.01 g of Cellulolytic Enzyme Composition #1 per liter of 50 mM sodium acetate pH 5 were used.

[8] = target: T3, Trichoderma reesei Cel7A cellobiohydrolase I (Trichoderma reesei, UniProt P62694); assay: PASC hydrolysis by Cel7A cellobiohydrolase I; type: biochemical
T3 construct: made in house
T3 sequence (P62694 18-513): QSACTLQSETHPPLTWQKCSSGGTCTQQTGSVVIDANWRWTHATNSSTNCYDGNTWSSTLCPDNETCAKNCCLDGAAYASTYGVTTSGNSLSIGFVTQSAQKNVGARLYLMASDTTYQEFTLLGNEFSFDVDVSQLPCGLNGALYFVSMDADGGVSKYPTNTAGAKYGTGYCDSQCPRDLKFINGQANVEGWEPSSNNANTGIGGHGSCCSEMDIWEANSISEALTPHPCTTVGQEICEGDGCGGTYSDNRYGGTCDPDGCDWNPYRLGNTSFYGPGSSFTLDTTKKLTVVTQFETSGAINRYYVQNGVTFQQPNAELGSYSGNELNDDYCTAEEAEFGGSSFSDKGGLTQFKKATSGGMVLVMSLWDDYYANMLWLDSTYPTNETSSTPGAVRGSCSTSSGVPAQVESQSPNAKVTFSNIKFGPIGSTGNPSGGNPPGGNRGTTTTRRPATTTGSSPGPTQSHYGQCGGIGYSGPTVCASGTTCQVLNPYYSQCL

[9] = ionic radii in crystals, 6-ligand coordination; cited from earlier work
[10] = target: T4, Aspergillus oryzae CEL3A beta-glucosidase (Aspergillus oryzae, UniProt Q2UUD6); assay: Cellobiose hydrolysis by CEL3A beta-glucosidase; type: biochemical
T4 construct: made in house
T4 sequence (Q2UUD6 20-861): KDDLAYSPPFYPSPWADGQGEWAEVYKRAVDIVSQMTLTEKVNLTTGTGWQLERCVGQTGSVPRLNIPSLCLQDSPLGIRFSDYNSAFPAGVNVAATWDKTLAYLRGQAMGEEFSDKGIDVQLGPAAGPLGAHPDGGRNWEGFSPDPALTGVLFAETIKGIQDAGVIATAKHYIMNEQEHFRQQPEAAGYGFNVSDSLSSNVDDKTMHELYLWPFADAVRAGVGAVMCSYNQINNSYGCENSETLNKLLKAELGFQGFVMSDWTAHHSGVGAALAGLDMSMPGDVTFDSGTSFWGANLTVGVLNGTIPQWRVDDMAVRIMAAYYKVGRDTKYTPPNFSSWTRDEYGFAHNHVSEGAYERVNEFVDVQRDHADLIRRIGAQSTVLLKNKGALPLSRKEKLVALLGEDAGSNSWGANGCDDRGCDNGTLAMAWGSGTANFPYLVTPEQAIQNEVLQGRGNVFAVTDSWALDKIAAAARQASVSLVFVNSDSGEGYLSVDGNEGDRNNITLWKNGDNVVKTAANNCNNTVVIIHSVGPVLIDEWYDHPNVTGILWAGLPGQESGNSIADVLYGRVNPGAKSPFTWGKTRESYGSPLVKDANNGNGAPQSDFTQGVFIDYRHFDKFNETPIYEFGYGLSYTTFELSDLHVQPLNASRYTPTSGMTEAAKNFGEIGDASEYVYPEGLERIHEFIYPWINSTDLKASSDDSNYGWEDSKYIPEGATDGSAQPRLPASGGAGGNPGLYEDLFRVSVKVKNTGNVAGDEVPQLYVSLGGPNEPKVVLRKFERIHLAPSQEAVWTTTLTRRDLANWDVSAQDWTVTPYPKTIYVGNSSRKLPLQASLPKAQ
Experimental: The Fe(II) inhibition of Aspergillus oryzae CEL3A beta-glucosidase was measured similarly, except cellobiose replaced PASC. The initial rate vs Fe(II) concentration plots appeared as “mixed” type, whose complexity prevented extraction of Kis.

[11] = system: Cellulolytic Enzyme Composition #1; assay: mini-plate-scale AVICEL hydrolysis by Cellulolytic Enzyme Composition #1; type: biochemical, Trichoderma reesei
Experimental: as §3
Iron-chelator complexes of variable size or redox property were tested for their ability to inhibit enzymatic hydrolysis of cellulose. […]

[12] = 0-15 mM FeSO4, 0.6-4 g PASC per liter

Structure (SMILES) | Effect of chelator on enzyme in the absence of FeSO4 [1] | Effect on AVICEL hydrolysis [2] | increase in hydrolysis extent [3] | Type of initial rate vs Fe(II) concentration plots [4, 12] | IC50 ([4]; PASC, CEL7B EGI, 40 mg enzyme per liter, read-out: I50 (mean ± SD)) [mM] | activity loss [5] | Type of initial rate vs Fe(II) concentration plots [6, 12] | IC50 ([6]; PASC, CEL5A EGII, 40 mg enzyme per liter, read-out: I50 (mean ± SD)) [mM] | IC50 [7] [mM] | Type of initial rate vs Fe(II) concentration plots [8, 12] | IC50 ([8]; PASC, CEL7A CBHI, 40 mg enzyme per liter, read-out: I50 (mean ± SD)) [mM] | Radius [9] [Å] | Type of initial rate vs Fe(II) concentration plots ([10]; 0-15 mM FeSO4, cellobiose replaced PASC) | IC50 ([10]; CEL3A BG, on cellobiose hydrolysis, read-out: I50 (mean ± SD)) [mM] | Effect on enzymatic cellulolysis: loss in initial rate ([11]; 10 mM, 25 g AVICEL and 0.25 g enzyme per liter, pH 5, 50° C.) | Effect on enzymatic cellulolysis: loss in extended hydrolysis extent ([11]; 10 mM, 25 g AVICEL and 0.25 g enzyme per liter, pH 5, 50° C., after 4 days) | IC50 ([11]; Avicel, Enzymes: Cellulolytic Enzyme Composition #1, read-out: I50 (mean ± SD)) [mM]
c1ccc(-c2ccccn2)nc1 [2,2′-bipyridyl] | significant inhibition | No significant inhibition | approximately 4% |  |  |  |  |  |  |  |  |  |  |  |  |  | 
[Fe+2] [Fe(II)] |  |  |  | mixed | 1.8 ± 0.2 | approximately 70% | mixed | 12 ± 4 | 14 ± 1 | mixed | 7 ± 2 | 0.61 | mixed | 13 ± 2 | ~70% loss in initial rate, ~70% loss in extended hydrolysis extent | ~70% loss in initial rate, ~70% loss in extended hydrolysis extent | 2 ± 1
